We go through one compound from article PMC3701070 (PLoS ONE, 2013).

One assay deals with OVCAR-5. Put plainly: Cell growth assay. Format: cell-based. The conditions noted are these: Homo sapiens, 72 h; OVCAR-5, RAF WT, RAS WT, 3-day; read-out: gIC50. In outline: (§1)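 Growth was quantified by CellTiter-Glo luminescent ATP read-out, taken at t = 0 and again at 72 h. Growth-inhibition IC50 (gIC50) values were derived from these readings.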
The test system of another assay is SW1417. Briefly: Cell growth assay. The conditions noted are these: Homo sapiens, 72 h; SW1417, BRAF(V600E), RAS WT, 3-day; read-out: gIC50. The assay is classed as cell-based. In short, it runs like this: as §1
A further assay relates to BC-3. Briefly: Cell growth assay. Format: cell-based. The conditions noted are these: Homo sapiens, 72 h; BC-3, RAF WT, RAS WT, 3-day; read-out: gIC50. In short, it runs like this:
as §1

Another assay concerns NCI-H661. Briefly: Cell growth assay. The assay is classed as cell-based. The conditions noted are these: Homo sapiens, 72 h; NCI-H661, RAF WT, RAS WT, 3-day; read-out: gIC50. In short, it runs like this: as §1
Another assay deals with HT-29. Briefly: Cell growth assay. Format: cell-based. The conditions noted are these: Homo sapiens, 72 h; HT-29, BRAF(V600E), RAS WT, 3-day; read-out: gIC50. In outline:
as §1

The next assay relates to SCC-9. Briefly: Cell growth assay. Format: cell-based. The conditions noted are these: Homo sapiens, 72 h; SCC-9, RAF WT, RAS WT, 3-day; read-out: gIC50. In outline:
as §1

The test system of the next assay is Be(2)C. Briefly: Cell growth assay. The assay is classed as cell-based. The conditions noted are these: Homo sapiens, 72 h, RAF WT, RAS WT, 3-day, read-out: gIC50. In short, it runs like this:
as §1

Assay [1] relates to Human Foreskin Fibroblasts (HFF, wild-type BRAF). Briefly: Cell cycle analysis. Format: cell-based. The note with it: concentrations up to 10 µM. The procedure:
Cells were permeabilized, DNA was stained with propidium iodide, and samples were read on a BD LSRII flow cytometer. Data were analyzed using the cell cycle platform of FlowJo v6.1.1 software.
Cell cycle phases are shown in stacked format as a percentage of the total population. […] (PPTX) Click here for additional data file.

A further assay has as its system A375P tumor xenograft. The conditions noted are these: groups of 8 mice, cited from earlier work.

Like-named read-outs stand apart in the source and are kept apart here. A value given as a limit tells only on which side of the number the result lay.

On to `CC(C)(C)c1nc(-c2cccc(NS(=O)(=O)c3c(F)cccc3F)c2F)c(-c2ccnc(N)n2)s1` [dabrafenib], for which the IC50 in the assay with OVCAR-5 is > 10000 nM; with SW1417 it was 158 nM; in the assay on BC-3 it was 277 nM; in the assay with NCI-H661, > 10000 nM; in the assay with HT-29 it was 66 nM; with SCC-9 it was > 10000 nM. Besides, the IC50 with Be(2)C is > 10000 nM. Further, in assay [1], the “effect on cell cycle” value is given as “unaffected”. Besides, the complete regressions is 1 with A375P tumor xenograft (10 mg/kg) and 4 in the assay on A375P tumor xenograft (100 mg/kg). In addition, the partial regressions with A375P tumor xenograft (10 mg/kg) and in the assay with A375P tumor xenograft (100 mg/kg) was 2 each time.
